Source: US20230242538A1, “PanK Modulators and Methods Using Same” (YALE UNIVERSITY, priority 2020, published 2023)
Like-named read-outs stand apart in the source and are kept apart here.

Tests used:
HeLa cells = assay: General toxicity against HeLa cells, 72 hr; format: cell-based; settings: for EC50: Homo sapiens, HeLa; for EC50 HeLa Tox 72 hr μM: Table 2
Experimental: (§1) Compounds of interest were assayed for their activity as inhibitors of fungal pantothenate kinase (PanK), modulators of human PanK, and general toxicity against HeLa cells.

hPanK3 = hPanK3 (Homo sapiens, UniProt Q9H999); assay: Modulation of human PanK (hPanK3); format: biochemical; settings: for IC50: Table 1; for AC50: Table 2, activation
Experimental: as §1

[1] = target: A. fumigatus enzyme (AfPanK) (Aspergillus fumigatus, UniProt Q4WWV3); assay: Inhibition of A. fumigatus pantothenate kinase (AfPanK); format: biochemical; settings: read-out: A. fum. IC50
S. cerevisiae monster = assay: Growth inhibition of S. cerevisiae monster; format: cell-based; settings: Saccharomyces cerevisiae; 200 μM of compound (μg/mL equivalent in brackets), VFM medium with no pantothenic acid, 24 h, 10^5 cells/ml
Experimental: In Table 1, “mixed” indicates a compound that is an activator at lower concentrations and is an inhibitor at higher concentrations. % growth inhibition S. cerevisiae monster was determined at 200 μM of compound in VFM medium with no pantothenic acid at 24 h (10^5 cells/ml).

Cab1 = target: T1, Cab1 (Saccharomyces cerevisiae, UniProt Q04430); assay: Inhibition of Cab1 pantothenate kinase; format: biochemical
T1 construct: His6; made in house
Experimental: The activity of recombinant His6-tagged Cab1p and cab1^G351S was determined in vitro using the Kinase-Glo Plus Luminescent Kinase (Kinase-Glo) assay as described in Chiu, et al., 2017, Scientific Reports 7:14234. The assay measures the amount of ATP remaining in solution following the kinase reaction. Briefly, kinase buffer consisted of 100 mM Tris-HCl pH 7.4, 10 mM MgCl2, 100 μM pantothenate (PA), 100 μM ATP, and 0.5 mg/mL γ-globulin. Kinase reactions were initiated with the addition of 500 ng of purified Cab1p or Cab1^G351S in elution buffer (10 mM Tris pH 7.4, NaCl 10 mM, 500 mM imidazole). Heat-inactivated (80° C. for 20 min) Cab1p or Cab were used as controls. Samples were incubated at room temperature for 1 hour. At the end of the incubation, an equal volume (10 μL) of Kinase-Glo reagent was added to each sample, the plates were further incubated for 5 min and luminescence was recorded using BioTek SynergyMx microplate reader (excitation wavelength 485; emission wavelength 528).
as §1

[2] = system: cab1^ts cells (Saccharomyces cerevisiae JS91.14-24); assay: Spotting assay on YPD agar, cab1ts yeast; format: cell-based; settings: 30° C., 48 hours; amorolfine 10 ng/mL, fluconazole 10 μg/mL, terbinafine 10 μg/mL, amphotericin B 1 μg/mL
Excerpt: (§2) Yeast strains (Saccharomyces cerevisiae) used in this study are JS91.15-23 (MATα his3 leu2 trp1 ura3) and JS91.14-24 (MATa ura3 his3 cab1ts) (Olzhausen, et al., 2009, Curr Genet 55, 163-173). Wild type and mutant strains were propagated either in YPD medium (2% bacto-peptone, 2% D-(+)-glucose and 1% yeast extract) or defined pantothenic acid-free (minimal) medium composed of Yeast Nitrogen Base (MP Biomedicals), supplemented with Complete Supplement Mixture (MP Biomedicals) and all vitamins except pantothenic acid. Where indicated, media were supplemented with appropriate concentrations of pantothenic acid.
(§3) Spotting assay were performed as follows. Pre-cultures of WT and cab1^ts yeast strains were prepared in YPD medium overnight at 30° C. Cells were harvested, washed, and diluted to 10^8 cells in 500 μL sterile water. Subsequent serial dilutions were made and 5 μL of cell suspensions were spotted on YPD agar plates lacking or supplemented with amorolfine 10 ng/mL, amphotericin B 1 μg/mL, fluconazole 10 μg/mL or terbinafine 10 μg/mL to achieve 10^6, 10^5, 10^4, 10^3, 10^2, and 10^1 cells per spot. Plates were incubated at 30° C. or 37° C. and imaged every 24 hours. For liquid assay in 96-well plate format, cells were pre-cultured overnight in liquid YPD medium at 30° C., washed three times in water and diluted to achieve 10^4 cells per well in 150 μL of minimal medium supplemented with 1 μM, 10 μM or 100 μM pantothenic acid and either lacking or supplemented with terbinafine (160 μg/ml). All plates were incubated at 30° C. Optical density measurements were taken with a BioTek SynergyMx microplate reader (OD630) every 8 hours for a total of 96 hours. Relative time to mid-log phase was calculated by first graphing growth curves of the varying concentrations of terbinafine for each concentration of pantothenic acid, and then determining the value at which the untreated curve reached saturation, and dividing it by 2 to represent the mid-log value. Dividing the time to mid-log phase of treated cells by the time to mid-log phase of untreated gave the relative time to mid-log phase.

[3] = system: WT cells (Saccharomyces cerevisiae JS91.15-23); assay: Spotting assay on YPD agar, WT yeast; format: cell-based; settings: 30° C., 48 hours; amorolfine 10 ng/mL, fluconazole 10 μg/mL, terbinafine 10 μg/mL, amphotericin B 1 μg/mL
Excerpt: as §2, §3

[4] = system: WT cells (Saccharomyces cerevisiae); assay: Liquid growth assay in minimal medium, WT yeast; format: cell-based; settings: 100 μM PA, single agent: squalene 100 μg/mL or terbinafine 80 μg/mL
Excerpt: as §2, §3

[5] = Table 2, read-out: EC50 HeLa Tox 72 hr
[6] = read-out: A cer. Cab1 IC50 μM, Table 2

Chain of hPanK3 (Q9H999 whole entry): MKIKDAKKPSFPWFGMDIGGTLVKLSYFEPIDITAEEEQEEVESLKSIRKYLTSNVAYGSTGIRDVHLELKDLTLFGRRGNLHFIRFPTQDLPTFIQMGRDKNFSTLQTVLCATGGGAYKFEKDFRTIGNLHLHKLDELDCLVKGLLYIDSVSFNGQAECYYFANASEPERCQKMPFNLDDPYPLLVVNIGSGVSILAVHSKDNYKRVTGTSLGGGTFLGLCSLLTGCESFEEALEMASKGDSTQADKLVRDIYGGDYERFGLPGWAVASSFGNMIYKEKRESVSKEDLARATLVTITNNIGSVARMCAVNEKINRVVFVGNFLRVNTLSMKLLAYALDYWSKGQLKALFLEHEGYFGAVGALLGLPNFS
T1 sequence (Q04430 whole entry): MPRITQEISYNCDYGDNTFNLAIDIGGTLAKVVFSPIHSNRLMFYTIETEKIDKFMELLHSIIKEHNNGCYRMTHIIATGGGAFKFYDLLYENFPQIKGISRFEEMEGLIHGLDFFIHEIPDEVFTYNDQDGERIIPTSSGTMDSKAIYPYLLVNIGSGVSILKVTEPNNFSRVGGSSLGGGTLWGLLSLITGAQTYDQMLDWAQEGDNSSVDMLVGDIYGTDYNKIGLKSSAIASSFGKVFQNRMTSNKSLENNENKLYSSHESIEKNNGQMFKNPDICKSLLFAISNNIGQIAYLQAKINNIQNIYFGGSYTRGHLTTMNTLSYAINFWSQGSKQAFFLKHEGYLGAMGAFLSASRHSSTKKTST
Chain of A. fumigatus enzyme (AfPanK) (Q4WWV3 entry or part of it): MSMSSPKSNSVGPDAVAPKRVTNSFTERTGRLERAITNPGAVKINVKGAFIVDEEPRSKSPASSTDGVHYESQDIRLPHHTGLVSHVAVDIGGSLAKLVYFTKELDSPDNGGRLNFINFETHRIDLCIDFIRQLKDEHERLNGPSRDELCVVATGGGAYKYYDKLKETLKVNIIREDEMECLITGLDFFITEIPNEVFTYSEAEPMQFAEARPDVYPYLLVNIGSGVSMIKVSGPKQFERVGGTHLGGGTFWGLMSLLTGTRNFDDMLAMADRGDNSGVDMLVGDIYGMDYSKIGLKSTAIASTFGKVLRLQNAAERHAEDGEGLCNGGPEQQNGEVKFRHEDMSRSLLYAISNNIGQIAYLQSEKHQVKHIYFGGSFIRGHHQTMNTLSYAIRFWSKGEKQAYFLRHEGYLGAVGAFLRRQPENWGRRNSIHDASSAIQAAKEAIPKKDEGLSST

Question: With CC(C)(C)c1ccc(CNc2nc3nc(CN4CCOCC4)cc(Cl)n3n2)cc1 [Compound A16] as the molecule, how does the EC50 (HeLa cells; Table 1, read-out: EC50 HeLa Tox 72 hr) read?
Answer: 2300 nM

Question: What about the IC50 (hPanK3) of the same molecule?
Answer: > 100000 nM

Question: What about the IC50 ([1]; Table 1) of the same molecule?
Answer: ~100000 nM

Question: And the inhibition at 200 µM (S. cerevisiae monster)?
Answer: 80%

Question: Cc1cc(C(=O)NCc2cccnc2)n2nc(NCc3ccc(C(C)(C)C)cc3)nc2n1 [Compound A17] was tested. Which IC50 (hPanK3) did it give?
Answer: > 100000 nM

Question: What about the IC50 ([1]; Table 1) of the same molecule?
Answer: ~100000 nM

Question: And the inhibition at 200 µM (S. cerevisiae monster)?
Answer: 63%

Question: For Cc1cc(C(=O)NCC(=O)O)n2nc(NCc3ccc(C(C)(C)C)cc3)nc2n1 [Compound A18], which IC50 (hPanK3) is on record?
Answer: > 100000 nM

Question: And the IC50 ([1]; Table 1)?
Answer: ~100000 nM

Question: What about the inhibition at 200 µM (S. cerevisiae monster) of the same molecule?
Answer: 29%

Question: Which “EC50 HeLa Tox 72 hr μM” value (HeLa cells) does the source give for CC(C)c1ccc(CNc2nc3[nH]c(CN4CCOCC4)cc(=O)n3n2)cc1 [Compound B1, 2-((4-isopropylbenzyl)amino)-5-(morpholinomethyl)-[1,2,4]triazolo[1,5-a]pyrimidin-7(4H)-one] here?
Answer: Inactive

Question: And the AC50 (hPanK3)?
Answer: 1.7 nM

Question: What about the IC50 ([1]; Table 2) of the same molecule?
Answer: 250 nM

Question: And the IC50 (Cab1)?
Answer: 0.43 µM

Question: Which results are given for Cc1cc(=O)n2nc(NCc3ccc(C(C)C)cc3)nc2[nH]1 [Compound B2, 2-((4-isopropylbenzyl)amino)-5-methyl-[1,2,4]triazolo[1,5-a]pyrimidin-7(4H)-one]?
Answer: EC50 (HeLa cells; [5]): > 100000 nM; AC50 (hPanK3): 5.3 nM; IC50 ([1]; Table 2): 270 nM; IC50 (Cab1): > 100 µM

Question: How did the “EC50 HeLa Tox 72 hr μM” value (HeLa cells) turn out when Cc1ccccc1-c1nc2[nH]c(CNc3ccccc3)cc(=O)n2n1 [Compound B3, 5-((phenylamino)methyl)-2-(o-tolyl)-[1,2,4]triazolo[1,5-a]pyrimidin-7(4H)-one] was run?
Answer: Inactive

Question: And the AC50 (hPanK3)?
Answer: 24 nM

Question: And the IC50 ([1]; Table 2)?
Answer: 10000 nM

Question: And the IC50 (Cab1)?
Answer: > 100 µM

Question: CC(C)c1ccc(CNc2nc3[nH]c(CN4CCCC4)cc(=O)n3n2)cc1 [Compound B4, 2-((4-isopropylbenzyl)amino)-5-(pyrrolidin-1-ylmethyl)-[1,2,4]triazolo[1,5-a]pyrimidin-7(4H)-one] was tested. Which “EC50 HeLa Tox 72 hr μM” value (HeLa cells) did it give?
Answer: Inactive

Question: And the AC50 (hPanK3)?
Answer: 32 nM

Question: What about the IC50 ([1]; Table 2) of the same molecule?
Answer: 11000 nM

Question: What about the IC50 (Cab1) of the same molecule?
Answer: > 100 µM

Question: What does the source list for CNc1cc(CN2CCOCC2)nc2nc(NCc3ccc(C(C)(C)C)cc3)nn12 [Compound B5]?
Answer: EC50 (HeLa cells; [5]): > 100000 nM; AC50 (hPanK3): 38 nM; IC50 ([1]; Table 2): 28000 nM; IC50 (Cab1; [6]): 9.4 µM

Question: Which “EC50 HeLa Tox 72 hr μM” value (HeLa cells) does the source give for CC(C)(C)c1ccc(CNc2nc3[nH]c(CN4CCOCC4)cc(=O)n3n2)cc1 [Compound B6] here?
Answer: Inactive

Question: What about the AC50 (hPanK3) of the same molecule?
Answer: 58 nM

Question: And the IC50 ([1]; Table 2)?
Answer: 260 nM

Question: What about the IC50 (Cab1; [6]) of the same molecule?
Answer: 0.19 µM

Question: With CN(C)c1cc(CN2CCOCC2)nc2nc(NCc3ccc(C(C)(C)C)cc3)nn12 [Compound B7] as the molecule, how does the EC50 (HeLa cells; [5]) read?
Answer: > 100000 nM

Question: And the AC50 (hPanK3)?
Answer: 76 nM

Question: What about the IC50 ([1]; Table 2) of the same molecule?
Answer: 44000 nM

Question: And the IC50 (Cab1; [6])?
Answer: > 100 µM

Question: Which results are given for CN1CCN(Cc2cc(=O)n3nc(NCc4ccc(C(C)(C)C)cc4)nc3[nH]2)CC1 [Compound B8]?
Answer: EC50 HeLa Tox 72 hr μM (HeLa cells): Inactive; AC50 (hPanK3): 160 nM; IC50 ([1]; Table 2): 890 nM; IC50 (Cab1; [6]): 0.55 µM

Question: How did the EC50 (HeLa cells; [5]) turn out when CC(C)(C)c1ccc(CNc2nc3[nH]c(CN4CCCCC4)cc(=O)n3n2)cc1 [Compound B9] was run?
Answer: > 100000 nM

Question: What about the AC50 (hPanK3) of the same molecule?
Answer: 270 nM

Question: And the IC50 ([1]; Table 2)?
Answer: 1800 nM

Question: And the IC50 (Cab1; [6])?
Answer: 30 µM

Question: What does the source list for CCC(C)(C)c1ccc(CC(C)CN2C[C@@H](C)O[C@@H](C)C2)cc1 (stereo partly drawn) [amorolfine]?
Answer: growth of cab1^ts cells on YPD agar in the presence of the drug [2]: not affected; growth of WT cells on YPD agar in the presence of the drug [3]: completely blocked

Question: How did the “growth of cab1^ts cells on YPD agar in the presence of the drug” value [2] turn out when OC(Cn1cncn1)(Cn1cncn1)c1ccc(F)cc1F [fluconazole] was run?
Answer: not affected

Question: What about the “growth of WT cells on YPD agar in the presence of the drug” value [3] of the same molecule?
Answer: greatly reduced

Question: For CC(C)=CCC/C(C)=C/CC/C(C)=C/CC/C=C(\C)CC/C=C(\C)CCC=C(C)C [squalene], which “mid-log phase reached at (time)” value [4] is on record?
Answer: 34 hours
